Laboratory results from ChEMBL document CHEMBL1641460, “Potent and selective thiophene urea-templated inhibitors of S6K” (Bioorg Med Chem Lett, 2011).

Assays:
[1] = molecular target: Insulin receptor (Homo sapiens) (UniProt P06213); assay: Inhibition of INSR at 10 uM
[2] = molecular target: Voltage-gated inwardly rectifying potassium channel KCNH2 (Homo sapiens, UniProt Q12809); assay: Displacement of labeled dofetilide from human ERG
[3] = molecular target: Inhibitor of nuclear factor kappa-B kinase subunit epsilon (Homo sapiens) (UniProt Q14164); assay: Inhibition of IKBKE at 10 uM
[4] = molecular target: Tyrosine-protein kinase Lck (Homo sapiens) (UniProt P06239); assay: Inhibition of LCK at 10 uM
[5] = molecular target: Serine/threonine-protein kinase MARK1 (Homo sapiens) (UniProt Q9P0L2); assay: Inhibition of MARK1 at 10 uM
Chain of Serine/threonine-protein kinase MARK1 (Homo sapiens) (Q9P0L2 whole entry, looked up): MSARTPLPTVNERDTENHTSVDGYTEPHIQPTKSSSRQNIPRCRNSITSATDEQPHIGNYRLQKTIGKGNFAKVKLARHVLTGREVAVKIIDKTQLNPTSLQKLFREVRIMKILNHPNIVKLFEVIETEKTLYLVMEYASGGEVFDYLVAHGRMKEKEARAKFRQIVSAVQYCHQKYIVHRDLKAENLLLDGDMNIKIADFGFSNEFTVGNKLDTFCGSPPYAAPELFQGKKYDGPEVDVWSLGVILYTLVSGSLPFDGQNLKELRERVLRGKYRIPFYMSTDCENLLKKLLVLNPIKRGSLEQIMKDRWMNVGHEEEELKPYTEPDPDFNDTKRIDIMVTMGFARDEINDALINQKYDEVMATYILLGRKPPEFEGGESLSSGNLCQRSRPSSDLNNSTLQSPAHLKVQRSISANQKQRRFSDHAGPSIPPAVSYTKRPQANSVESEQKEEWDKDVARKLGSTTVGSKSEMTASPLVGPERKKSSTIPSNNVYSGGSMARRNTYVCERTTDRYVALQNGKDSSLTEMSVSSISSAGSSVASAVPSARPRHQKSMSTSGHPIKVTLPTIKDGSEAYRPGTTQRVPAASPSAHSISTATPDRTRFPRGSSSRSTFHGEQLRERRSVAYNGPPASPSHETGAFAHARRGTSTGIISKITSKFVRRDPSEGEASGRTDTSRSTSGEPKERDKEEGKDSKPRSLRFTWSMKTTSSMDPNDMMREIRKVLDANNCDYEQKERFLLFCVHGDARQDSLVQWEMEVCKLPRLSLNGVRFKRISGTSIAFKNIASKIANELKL

[6] = molecular target: Epidermal growth factor receptor (Homo sapiens) (UniProt P00533); assay: Inhibition of EGFR at 10 uM
[7] = molecular target: Aurora kinase A (Homo sapiens) (UniProt O14965); assay: Inhibition of aurora A at 1 uM
[8] = molecular target: Fibroblast growth factor receptor 1 (Homo sapiens) (UniProt P11362); assay: Inhibition of FGFR1 at 10 uM
Chain of Fibroblast growth factor receptor 1 (Homo sapiens) (P11362 22-822 limits assumed): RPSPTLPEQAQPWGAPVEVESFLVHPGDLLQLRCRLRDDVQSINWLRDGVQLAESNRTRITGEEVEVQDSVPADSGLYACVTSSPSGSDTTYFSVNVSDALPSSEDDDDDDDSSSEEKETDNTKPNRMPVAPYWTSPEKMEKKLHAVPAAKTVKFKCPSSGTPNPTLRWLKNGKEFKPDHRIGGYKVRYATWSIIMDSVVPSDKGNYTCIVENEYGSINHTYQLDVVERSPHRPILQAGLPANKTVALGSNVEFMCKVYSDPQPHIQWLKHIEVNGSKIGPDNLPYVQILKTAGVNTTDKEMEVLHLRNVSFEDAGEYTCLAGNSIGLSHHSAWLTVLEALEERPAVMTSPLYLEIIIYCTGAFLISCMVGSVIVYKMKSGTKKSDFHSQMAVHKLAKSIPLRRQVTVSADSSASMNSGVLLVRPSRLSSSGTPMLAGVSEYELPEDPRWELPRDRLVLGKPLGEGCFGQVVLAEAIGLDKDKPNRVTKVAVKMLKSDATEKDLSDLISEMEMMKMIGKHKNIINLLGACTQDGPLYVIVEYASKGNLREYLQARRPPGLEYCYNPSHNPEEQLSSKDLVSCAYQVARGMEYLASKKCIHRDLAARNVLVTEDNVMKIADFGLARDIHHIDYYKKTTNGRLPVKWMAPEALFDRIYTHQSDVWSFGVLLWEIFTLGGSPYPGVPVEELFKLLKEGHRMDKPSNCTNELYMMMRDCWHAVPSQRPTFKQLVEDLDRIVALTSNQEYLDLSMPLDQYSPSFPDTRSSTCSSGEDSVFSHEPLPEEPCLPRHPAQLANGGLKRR

[9] = molecular target: Serine/threonine-protein kinase Sgk1 (Homo sapiens) (UniProt O00141); assay: Inhibition of SGK1 at 10 uM
Chain of Serine/threonine-protein kinase Sgk1 (Homo sapiens) (O00141 whole entry): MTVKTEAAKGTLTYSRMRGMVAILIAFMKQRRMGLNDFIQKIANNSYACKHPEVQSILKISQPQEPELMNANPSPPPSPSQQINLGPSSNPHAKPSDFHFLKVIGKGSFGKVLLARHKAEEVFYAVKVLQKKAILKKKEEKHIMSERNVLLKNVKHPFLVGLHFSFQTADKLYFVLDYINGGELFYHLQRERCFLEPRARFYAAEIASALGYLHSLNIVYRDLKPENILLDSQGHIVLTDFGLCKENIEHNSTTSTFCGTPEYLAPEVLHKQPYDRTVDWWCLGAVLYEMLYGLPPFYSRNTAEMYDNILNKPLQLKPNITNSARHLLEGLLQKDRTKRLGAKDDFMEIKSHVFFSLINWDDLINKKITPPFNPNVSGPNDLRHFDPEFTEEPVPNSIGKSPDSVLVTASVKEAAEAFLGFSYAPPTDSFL

[10] = molecular target: MAP kinase-activated protein kinase 2 (Homo sapiens) (UniProt P49137); assay: Inhibition of MAPKAPK2 at 10 uM
[11] = molecular target: cAMP-dependent protein kinase catalytic subunit alpha (Homo sapiens) (UniProt P17612); assay: Inhibition of PRKACA at 10 uM
[12] = molecular target: Insulin receptor (Homo sapiens) (UniProt P06213); assay: Inhibition of INSR at 1 uM
[13] = molecular target: Inhibitor of nuclear factor kappa-B kinase subunit beta (Homo sapiens) (UniProt O14920); assay: Inhibition of IKBKB at 10 uM
Chain of Inhibitor of nuclear factor kappa-B kinase subunit beta (Homo sapiens) (O14920 whole entry): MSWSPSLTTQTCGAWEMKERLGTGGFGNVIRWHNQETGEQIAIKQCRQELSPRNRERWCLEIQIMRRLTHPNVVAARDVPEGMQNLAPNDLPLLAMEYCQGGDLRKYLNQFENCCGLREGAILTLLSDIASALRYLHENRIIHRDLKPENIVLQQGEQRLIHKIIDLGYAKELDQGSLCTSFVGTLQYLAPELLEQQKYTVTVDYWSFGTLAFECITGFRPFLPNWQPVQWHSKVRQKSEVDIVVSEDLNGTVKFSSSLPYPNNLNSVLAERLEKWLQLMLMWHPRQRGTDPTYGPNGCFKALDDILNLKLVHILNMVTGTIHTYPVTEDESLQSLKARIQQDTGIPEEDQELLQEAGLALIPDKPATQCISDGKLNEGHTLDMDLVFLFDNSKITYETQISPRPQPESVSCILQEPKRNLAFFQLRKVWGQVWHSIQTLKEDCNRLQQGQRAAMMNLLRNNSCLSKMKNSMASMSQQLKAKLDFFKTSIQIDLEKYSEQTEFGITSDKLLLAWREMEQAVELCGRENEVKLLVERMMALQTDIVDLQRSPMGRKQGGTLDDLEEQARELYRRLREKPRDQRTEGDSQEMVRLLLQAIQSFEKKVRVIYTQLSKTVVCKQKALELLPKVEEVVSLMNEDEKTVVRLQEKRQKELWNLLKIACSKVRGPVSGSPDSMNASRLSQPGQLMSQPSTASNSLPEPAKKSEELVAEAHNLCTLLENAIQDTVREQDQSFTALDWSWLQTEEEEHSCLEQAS

[14] = molecular target: Cyclin-dependent kinase 2 (Homo sapiens) (UniProt P24941); assay: Inhibition of CDK2 at 10 uM
CYP2D6 = CYP2D6 (Homo sapiens, UniProt P10635); assay: Inhibition of CYP2D6 at 3 uM by LC/MS/MS analysis; type: ADME
[15] = molecular target: Myosin light chain kinase 2, skeletal/cardiac muscle (Homo sapiens) (UniProt Q9H1R3); assay: Inhibition of MYLK2 at 1 uM
[16] = molecular target: Protein kinase C zeta type (Homo sapiens) (UniProt Q05513); assay: Inhibition of PRKCZ at 10 uM
[17] = molecular target: Dual specificity protein kinase CLK1 (Homo sapiens) (UniProt P49759); assay: Inhibition of CLK1 at 1 uM
[18] = molecular target: RAC-alpha serine/threonine-protein kinase (Homo sapiens) (UniProt P31749); assay: Inhibition of AKT1 at 1 uM
[19] = molecular target: Serine/threonine-protein kinase 3 (Homo sapiens) (UniProt Q13188); assay: Inhibition of STK3 at 10 uM
[20] = molecular target: Ephrin type-A receptor 2 (Homo sapiens) (UniProt P29317); assay: Inhibition of EPHA2 at 1 uM
[21] = molecular target: Mitogen-activated protein kinase 14 (Homo sapiens) (UniProt Q16539); assay: Inhibition of MAPK14 at 1 uM
[22] = molecular target: Serine/threonine-protein kinase Nek2 (Homo sapiens) (UniProt P51955); assay: Inhibition of NEK2 at 10 uM
[23] = molecular target: Calcium/calmodulin-dependent protein kinase type 1 (Homo sapiens) (UniProt Q14012); assay: Inhibition of CAMK1 at 10 uM
[24] = molecular target: Proto-oncogene tyrosine-protein kinase Src (Homo sapiens) (UniProt P12931); assay: Inhibition of SRC at 10 uM
[25] = molecular target: Cyclin-dependent kinase 6 (Homo sapiens) (UniProt Q00534); assay: Inhibition of CDK6 at 10 uM
[26] = molecular target: Serine/threonine-protein kinase Sgk1 (Homo sapiens) (UniProt O00141); assay: Inhibition of SGK1 at 1 uM
[27] = molecular target: Serine/threonine-protein kinase Chk1 (Homo sapiens) (UniProt O14757); assay: Inhibition of CHEK1 at 10 uM
[28] = molecular target: Serine/threonine-protein kinase Nek2 (Homo sapiens) (UniProt P51955); assay: Inhibition of NEK2 at 1 uM
[29] = molecular target: 3-phosphoinositide-dependent protein kinase 1 (Homo sapiens) (UniProt O15530); assay: Inhibition of PDPK1 at 10 uM
Chain of 3-phosphoinositide-dependent protein kinase 1 (Homo sapiens) (O15530 whole entry, canonical isoform): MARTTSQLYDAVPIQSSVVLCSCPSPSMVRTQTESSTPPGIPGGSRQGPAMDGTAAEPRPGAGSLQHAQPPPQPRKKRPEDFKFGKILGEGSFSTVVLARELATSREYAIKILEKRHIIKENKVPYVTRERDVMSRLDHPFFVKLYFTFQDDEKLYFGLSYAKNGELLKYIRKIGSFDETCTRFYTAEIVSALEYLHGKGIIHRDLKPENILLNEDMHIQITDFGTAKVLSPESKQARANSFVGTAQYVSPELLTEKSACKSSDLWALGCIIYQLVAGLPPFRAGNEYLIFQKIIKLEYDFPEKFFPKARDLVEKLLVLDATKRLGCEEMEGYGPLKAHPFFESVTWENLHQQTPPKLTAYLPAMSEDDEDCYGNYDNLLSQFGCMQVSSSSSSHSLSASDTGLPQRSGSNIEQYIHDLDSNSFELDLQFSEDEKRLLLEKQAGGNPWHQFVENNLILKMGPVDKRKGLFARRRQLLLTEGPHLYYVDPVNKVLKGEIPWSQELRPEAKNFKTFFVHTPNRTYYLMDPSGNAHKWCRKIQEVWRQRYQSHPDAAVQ

[30] = molecular target: Fibroblast growth factor receptor 1 (Homo sapiens) (UniProt P11362); assay: Inhibition of FGFR1 at 1 uM
[31] = molecular target: Serine/threonine-protein kinase Chk2 (Homo sapiens) (UniProt O96017); assay: Inhibition of CHEK2 at 1 uM
[32] = molecular target: Protein kinase C beta type (Homo sapiens) (UniProt P05771); assay: Inhibition of PRKCB at 1 uM
[33] = molecular target: cAMP-dependent protein kinase catalytic subunit alpha (Homo sapiens) (UniProt P17612); assay: Inhibition of PRKACA at 1 uM
[34] = molecular target: Casein kinase II subunit alpha (Homo sapiens) (UniProt P68400); assay: Inhibition of CSNK2A1 at 10 uM
[35] = molecular target: Cyclin-dependent kinase 2 (Homo sapiens) (UniProt P24941); assay: Inhibition of CDK2 at 1 uM
[36] = molecular target: Tyrosine-protein kinase BTK (Homo sapiens) (UniProt Q06187); assay: Inhibition of BTK at 10 uM
[37] = molecular target: Serine/threonine-protein kinase pim-2 (Homo sapiens) (UniProt Q9P1W9); assay: Inhibition of PIM2 at 10 uM
Chain of Serine/threonine-protein kinase pim-2 (Homo sapiens) (Q9P1W9 whole entry, looked up): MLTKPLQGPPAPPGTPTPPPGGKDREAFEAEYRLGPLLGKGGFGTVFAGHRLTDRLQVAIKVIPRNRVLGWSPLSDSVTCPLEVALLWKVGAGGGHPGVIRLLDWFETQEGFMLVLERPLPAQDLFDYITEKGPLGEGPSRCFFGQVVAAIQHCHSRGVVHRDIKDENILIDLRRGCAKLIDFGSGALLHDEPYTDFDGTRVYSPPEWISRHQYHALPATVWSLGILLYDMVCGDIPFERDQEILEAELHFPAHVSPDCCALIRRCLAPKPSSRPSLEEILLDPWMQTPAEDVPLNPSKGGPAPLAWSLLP

[38] = molecular target: Inhibitor of nuclear factor kappa-B kinase subunit beta (Homo sapiens) (UniProt O14920); assay: Inhibition of IKBKB at 1 uM
[39] = molecular target: Serine/threonine-protein kinase MARK1 (Homo sapiens) (UniProt Q9P0L2); assay: Inhibition of MARK1 at 1 uM
[40] = molecular target: Tyrosine-protein kinase BTK (Homo sapiens) (UniProt Q06187); assay: Inhibition of BTK at 1 uM
[41] = molecular target: High affinity nerve growth factor receptor (Homo sapiens) (UniProt P04629); assay: Inhibition of NTRK1 at 10 uM
[42] = molecular target: Ephrin type-A receptor 2 (Homo sapiens) (UniProt P29317); assay: Inhibition of EPHA2 at 10 uM
[43] = molecular target: Glycogen synthase kinase-3 beta (Homo sapiens) (UniProt P49841); assay: Inhibition of GSK3b at 1 uM
[44] = molecular target: Proto-oncogene tyrosine-protein kinase Src (Homo sapiens) (UniProt P12931); assay: Inhibition of SRC at 1 uM
[45] = molecular target: 3-phosphoinositide-dependent protein kinase 1 (Homo sapiens) (UniProt O15530); assay: Inhibition of PDPK1 at 1 uM
[46] = molecular target: Casein kinase I isoform delta (Homo sapiens) (UniProt P48730); assay: Inhibition of CSNK1D at 1 uM
[47] = molecular target: Tyrosine-protein kinase ABL1 (Homo sapiens) (UniProt P00519); assay: Inhibition of ABL1 at 10 uM
[48] = molecular target: Vascular endothelial growth factor receptor 2 (Homo sapiens) (UniProt P35968); assay: Inhibition of KDR at 10 uM

Chain of Insulin receptor (Homo sapiens) (P06213 28-758 limits assumed): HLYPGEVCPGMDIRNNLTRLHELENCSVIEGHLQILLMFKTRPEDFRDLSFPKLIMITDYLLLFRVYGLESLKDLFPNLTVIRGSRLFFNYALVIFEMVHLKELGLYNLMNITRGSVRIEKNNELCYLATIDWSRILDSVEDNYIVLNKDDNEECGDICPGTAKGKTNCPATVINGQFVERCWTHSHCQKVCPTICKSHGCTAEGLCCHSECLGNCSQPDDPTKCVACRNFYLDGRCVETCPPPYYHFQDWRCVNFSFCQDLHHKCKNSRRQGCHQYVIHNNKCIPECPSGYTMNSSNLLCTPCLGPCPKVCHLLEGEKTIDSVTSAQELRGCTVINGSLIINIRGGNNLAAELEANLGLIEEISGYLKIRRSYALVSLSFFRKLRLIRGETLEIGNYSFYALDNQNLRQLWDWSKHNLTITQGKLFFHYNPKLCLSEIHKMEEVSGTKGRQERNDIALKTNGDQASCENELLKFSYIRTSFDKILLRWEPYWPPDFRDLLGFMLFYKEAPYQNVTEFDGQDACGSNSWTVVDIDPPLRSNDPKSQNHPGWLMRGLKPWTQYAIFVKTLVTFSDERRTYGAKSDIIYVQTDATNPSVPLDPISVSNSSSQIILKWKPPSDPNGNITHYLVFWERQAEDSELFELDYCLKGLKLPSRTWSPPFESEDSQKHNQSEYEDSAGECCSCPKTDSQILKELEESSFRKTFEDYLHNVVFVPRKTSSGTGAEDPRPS
Chain of Insulin receptor (Homo sapiens) (P06213 763-1382 limits assumed): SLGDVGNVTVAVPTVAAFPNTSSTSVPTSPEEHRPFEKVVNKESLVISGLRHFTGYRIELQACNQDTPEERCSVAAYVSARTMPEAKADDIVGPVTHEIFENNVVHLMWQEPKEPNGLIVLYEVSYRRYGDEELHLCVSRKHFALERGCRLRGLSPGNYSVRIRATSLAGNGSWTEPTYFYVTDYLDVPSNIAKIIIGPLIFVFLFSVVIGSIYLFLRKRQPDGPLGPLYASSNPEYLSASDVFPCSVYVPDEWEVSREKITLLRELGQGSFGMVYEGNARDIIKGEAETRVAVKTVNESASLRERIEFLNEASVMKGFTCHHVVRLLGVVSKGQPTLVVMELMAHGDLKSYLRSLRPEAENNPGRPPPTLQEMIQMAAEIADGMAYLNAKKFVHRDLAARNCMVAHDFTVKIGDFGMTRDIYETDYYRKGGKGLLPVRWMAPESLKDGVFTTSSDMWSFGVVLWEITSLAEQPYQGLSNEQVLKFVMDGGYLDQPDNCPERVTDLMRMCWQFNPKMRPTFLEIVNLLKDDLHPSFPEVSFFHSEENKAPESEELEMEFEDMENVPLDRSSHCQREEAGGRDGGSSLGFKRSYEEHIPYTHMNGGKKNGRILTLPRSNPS

Compound: CC(C)(C)c1cc(C(=O)O)c(NC(=O)Nc2ccc3[nH]ncc3c2)s1
- inhibition [1]: 0%
- inhibition (INH) [2]: 0%
- inhibition [3]: 10%
- inhibition [4]: 0%
- inhibition [5]: 20%
- inhibition [6]: 10%
- inhibition [7]: 0%
- inhibition [8]: 0%
- inhibition [9]: 0%
- inhibition [10]: 10%
- inhibition [11]: 10%
- inhibition [12]: 0%
- inhibition [13]: 10%
- inhibition [14]: 10%
- inhibition at 3 µM (CYP2D6): 0%
- inhibition [15]: 10%
- inhibition [16]: 20%
- inhibition [17]: 10%
- inhibition [18]: 0%
- inhibition [19]: 0%
- inhibition [20]: 10%
- inhibition [21]: 10%
- inhibition [22]: 10%
- inhibition [23]: 10%
- inhibition [24]: 0%
- inhibition [25]: 0%
- inhibition [26]: 0%
- inhibition [27]: 10%
- inhibition [28]: 10%
- inhibition [29]: 20%
- inhibition [30]: 0%
- inhibition [31]: 20%
- inhibition [32]: 10%
- inhibition [33]: 10%
- inhibition [34]: 30%
- inhibition [35]: 10%
- inhibition [36]: 0%
- inhibition [37]: 0%
- inhibition [38]: 10%
- inhibition [39]: 20%
- inhibition [40]: 0%
- inhibition [41]: 10%
- inhibition [42]: 10%
- inhibition [43]: 10%
- inhibition [44]: 0%
- inhibition [45]: 20%
- inhibition [46]: 20%
- inhibition [47]: 0%
- inhibition [48]: 0%
